Experimental data as given in US5585382A, “Polycyclic and heterocyclic chromophores for bis-imide tumoricidals” (The DuPont Merck Pharmaceutical Company, priority 1995, dated 1996).
≈ marks a conversion by molar mass, not a printed value. Where two headings read alike, the source gives them in different places.

Assays:
[1] = tested on: Murine leukemia L1210 cells; experiment: In vitro growth inhibition of L1210 cells (MTT, 72 hr); format: cell-based; conditions: Mus musculus, read-out: L1210 IC50
Description: (§1) The reagents for tissue culture were purchased from GIBCO (Grand Island, N.Y.). 5-Dimethylthiazol-2-yl)-2,5-diphenyl tetrazolium bromide (MTT) was purchased from Sigma Chemical Company (St. Louis, Mo.). All agents were prepared as 2 mg/ml stock solutions in DMSO. MTT was prepared as a 1 mg/ml stock solution in Dulbecco's phosphate buffered saline (PBS). All stocks were stored frozen in the dark at -20° C.
(§2) Clone A human colon cancer cells were isolated from the heterogeneous DLD-1 colon tumor line and maintained as previously described (Dexter, D. L.; Barbosa, J. A.; Calabresi, P. Cancer Research 1979, 39, 1020; Dexter, D. L.; Spremulli, E. M.; Fligiel, A.; Barbosa, J. A.; Vogel, R.; Van Vorhees, A.; Calabresi, P. Am. J. Med. 1981, 71, 949.). Murine leukemia L1210 cells were maintained in RPMI-L medium as described (Chen, S.-F.; Ruben, R. L.; Dexter, D. L. Cancer Research 1986, 46, 5014.). All cell lines were incubated at 37° C. in a humidified atmosphere of 5% CO2 -95% air.
(§3) Exponentially growing L1210 cells (1×10^3), or Clone A cells (8×10^2) in 0.1 ml medium were seeded in a 96-well microtiter plate on day 0. On day one, 0.1 ml aliquots of medium containing graded concentrations of test compounds were added to the cell plates. After incubation at 37° C. in a humidified incubator for 72 hr, the plates containing L1210 cells were centrifuged briefly and 100 μl of the growth medium was removed. Cell cultures were incubated with 50 μl of MTT for 4 h at 37° C. (12). The resulting purple formazan precipitate was solubilized with 200 μl of 0.04 N HCl in isopropyl alcohol. Absorbance was read in a Titertek Multiskan MCC scanning well spectrophotometer (Flow Laboratories) at a test wavelength of 570 nm and a reference wavelength of 630 nm. The absorbances were stored on a floppy disk on an IBM-XT and uploaded onto a VAX computer. IC50 values were determined by a computer program that fit the data to the following equation:
(§4) Y=((Am -Ao)/(1+(X/IC50)^n))+Ao
(§5) where Am =absorbance of the control cells; Ao =absorbance of the cells in the presence of highest compound concentration; Y=observed absorbance; X=compound concentration; IC50 =dose of compound that inhibits the number of population doublings of cells to one half that of the number of population doublings of the control cells; and n equals the slope of the straight portion of the curve.
(§6) The values reported in the table are from at least one experiment performed in eight replicates. If more than one experiment was performed, the number reported is the average of all the trials

[2] = tested on: Clone A human colon cancer cells; experiment: In vitro growth inhibition of Clone A cells (MTT, 72 hr); format: cell-based; conditions: read-out: Clone A IC50
Description: as §1, §2, §3, §4, §5, §6

Row | Compound | IC50 ([1]; L1210 cells, 72 hr, MTT) [µg/mL] | IC50 ([2]; Clone A cells, 72 hr, MTT) [µg/mL] | solubility (Solubility in water) [µg/mL] | IC50 ([1]; L1210, 72 h) [µg/mL] | IC50 ([2]; 72 h) [µg/mL]
1 | CS(=O)(=O)O.CS(=O)(=O)O.CS(=O)(=O)O.Nc1cc2c3c(cc4cccnc4c3c1)C(=O)N(CCCCNCCCN1C(=O)c3cc(N)cc4c3c(cc3cccnc34)C1=O)C2=O [Example 9, 4-[3-(3-Amino-5-azaphenanthrene-1,10-dicarboximido)propylamino]-1-(3-amino-5-azaphenanthrene-1, 10-dicarboximido)butane Trihydromethanesulfonate] | 0.182 | 0.166 | 11000 | – | –
2 | CS(=O)(=O)O.Cc1cnc2c(c1)cc1c3c(cc([N+](=O)[O-])cc32)C(=O)N(CCCCNCCCN2C(=O)c3cc([N+](=O)[O-])cc4c3c(cc3cc(C)cnc34)C2=O)C1=O [Example 12, 4-[3-(3-Nitro-7-methyl-5-azaphenanthrene-1, 10-dicarboximido)propylamino]-1-(3-nitro-7-methyl-5-azaphenanthrene-1, 10-dicarboximido)butane Hydromethanesulfonate] | – | – | 50 | 0.027 | 0.009
3 | CS(=O)(=O)O.CS(=O)(=O)O.CS(=O)(=O)O.O=C1c2cccc3c2c(cc2ccncc23)C(=O)N1CCCCNCCCN1C(=O)c2cccc3c2c(cc2ccncc23)C1=O [Example 14, 4-[3-(6-Azaphenanthrene-1,10-dicarboximido)propylamino]-1-(6-azaphenanthrene-1,10-dicarboximido) butane Trihydromethanesulfonate] | 0.008 | 0.003 | 900 | – | –
4 | O=C1c2cccc3c2c(cc2cnccc23)C(=O)N1CCCCNCCCN1C(=O)c2cccc3c2c(cc2cnccc23)C1=O [Example 15, 4-[3-(7-Azaphenanthrene-1,10-dicarboximido)propylamino]-1-(7-azaphenanthrene-1,10dicarboximido) butane 2.5-Hydromethanesulfonate] | 0.002 (≈ 0.00329 µM) | 0.002 (≈ 0.00329 µM) | 810 (≈ 1330 µM) | – | –
5 | C[C@H](CNC[C@@H](C)N1C(=O)c2cc([N+](=O)[O-])cc3c2c(cc2cccnc23)C1=O)NC[C@@H](C)N1C(=O)c2cc([N+](=O)[O-])cc3c2c(cc2cccnc23)C1=O [Example 21] | 0.042 (≈ 0.0567 µM) | 0.005 (≈ 0.00675 µM) | 7700 (≈ 10400 µM) | – | –
6 | CS(=O)(=O)O.CS(=O)(=O)O.C[C@@H](CNCCNC[C@H](C)N1C(=O)c2cccc3c2c(cc2ccc([N+](=O)[O-])cc23)C1=O)N1C(=O)c2cccc3c2c(cc2ccc([N+](=O)[O-])cc23)C1=O [Example 52, (S,S)-1,2-bis-[2-(6-Nitrophenanthrene-1,10-dicarboximido)propylamino]ethane Dihydromethanesulfonate] | – | – | – | 0.082 | 0.044
7 | CS(=O)(=O)O.CS(=O)(=O)O.CS(=O)(=O)O.Nc1cc2c3c(cc4ccccc4c3c1)C(=O)N(CCCCNCCCN1C(=O)c3cc(N)cc4c3c(cc3ccccc34)C1=O)C2=O [Example 53, 4-[3-(3-Aminophenanthrene-1,10-dicarboximido)propylamino]-1-(3-aminophenanthrene-1,10-dicarboximido)butane Trihydromethanesulfonate] | – | – | – | 0.453 | 0.755
8 | COc1ccc2c(c1)cc1c3c(cccc32)C(=O)N(CCCCNCCCN2C(=O)c3cccc4c3c(cc3cc(OC)ccc34)C2=O)C1=O.CS(=O)(=O)O [Example 54, 4-[3-(7-Methoxyphenanthrene-1,10-dicarboximido)propylamino]-1-(7-methoxyphenanthrene-1,10-dicarboximido)butane Hydromethanesulfonate] | – | – | – | 0.198 | 0.615
9 | COc1cc2cc3c4c(cccc4c2cc1OC)C(=O)N(CCCCNCCCN1C(=O)c2cccc4c2c(cc2cc(OC)c(OC)cc24)C1=O)C3=O.CS(=O)(=O)O [Example 55, 4-[3-(6,7-Dimethoxyphenanthrene-1,10-dicarboximido)propylamino]-1-(6,7-dimethoxyphenanthrene-1,10-dicarboximido)butane Hydromethanesulfonate] | – | – | – | 0.356 | 5.43
10 | CS(=O)(=O)O.CS(=O)(=O)O.Cc1nc2cc3c4c(cccc4c2s1)C(=O)N([C@H](C)CNCCNC[C@@H](C)N1C(=O)c2cccc4c2c(cc2nc(C)sc24)C1=O)C3=O [Example 83, (R,R) -1,2-bis-[2-(2-Methylnaphtho[2,1-d]thiazole-5,6-dicarboximido)propylamino]ethane Dihydromethanesulfonate] | < 0.01 | 0.004 | – | – | –
11 | CS(=O)(=O)O.O=C1c2cccc3c2c(cc2occc23)C(=O)N1CCCCNCCCN1C(=O)c2cccc3c2c(cc2occc23)C1=O [Example 90, 4-[3-(Naphtho[2,1-b]furan-5,6-dicarboximido)propylamino]-1-(naphtho[2,1-b]furan-5,6-dicarboximido)butane Hydromethanesulfonate] | 0.013 | 0.017 | – | – | –
12 | CS(=O)(=O)O.CS(=O)(=O)O.C[C@H](CNCCNC[C@@H](C)N1C(=O)c2cccc3c4c(cc(c23)C1=O)C(=O)c1ccccc1C4=O)N1C(=O)c2cccc3c4c(cc(c23)C1=O)C(=O)c1ccccc1C4=O [Example 101, (R,R)-1,2-bis-[2-(7,12-Dihydro-7,12-dioxobenz[a]anthracene-4,5-dicarboximido)propylamino]ethane Dihydromethanesulfonate] | 0.105 | 0.05 | – | – | –
13 | CS(=O)(=O)O.CS(=O)(=O)O.C[C@H](CNCCNC[C@@H](C)N1C(=O)c2cccc3c2c(cc2cccnc23)C1=O)N1C(=O)c2cccc3cc([N+](=O)[O-])cc(c23)C1=O [Example 110, (R,R)-1-[2-(5-Azaphenanthrene-1,10-dicarboximido)propylamino]-2-[2-(3-nitronaphthalene-1,8-dicarboximido)propylamino]ethane Dihydromethanesulfonate] | 0.183 | 0.006 | – | – | –
14 | CS(=O)(=O)O.CS(=O)(=O)O.C[C@H](CNCCNC[C@@H](C)N1C(=O)c2cccc3c2c(cc2cnccc23)C1=O)N1C(=O)c2cccc3cc([N+](=O)[O-])cc(c23)C1=O [Example 113, (R,R)-1-[2-(7-Azaphenanthrene-1,10-dicarboximido)propylamino]-2-[2-(3-nitronaphthalene-1,8-dicarboximido)propylamino]ethane Dihydromethanesulfonate] | 0.008 | 0.0003 | – | – | –
15 | CS(=O)(=O)O.CS(=O)(=O)O.C[C@H](CNCCNC[C@@H](C)N1C(=O)c2cc([N+](=O)[O-])cc3c2c(cc2ncccc23)C1=O)N1C(=O)c2cccc3cc([N+](=O)[O-])cc(c23)C1=O [Example 116, (R,R)-1-[2-(3-Nitro-8-azaphenanthrene-1,10-dicarboximido)propylamino]-2-[2-(3-nitronaphthalene-1,8-dicarboximido)propylamino]ethane Dihydromethanesulfonate] | – | – | – | 0.012 | 0.003
16 | C[C@H](CNCCNC[C@@H](C)N1C(=O)c2cc([N+](=O)[O-])cc3c2c(cc2ccncc23)C1=O)N1C(=O)c2cccc3cc([N+](=O)[O-])cc(c23)C1=O [Example 119, (R,R)-1-[3-Nitro-6-azaphenanthrene-1, 10-dicarboximido)propylamino]-2-[2-(3-nitronaphthalene-1,8-dicarboximido)propylamino]ethane Dihydromethanesulfonate] | – | – | – | 0.044 | 0.003
17 | C[C@H](CNCCNC[C@@H](C)N1C(=O)c2cccc3c2c(cc2ccc(F)cc23)C1=O)N1C(=O)c2cccc3cc([N+](=O)[O-])cc(c23)C1=O [Example 120] | – | – | – | 0.261 (≈ 0.403 µM) | 0.013 (≈ 0.0201 µM)
18 | C[C@H](CNCCNC[C@@H](C)N1C(=O)c2cccc3c2c(cc2ccc(C(F)(F)F)cc23)C1=O)N1C(=O)c2cccc3cc([N+](=O)[O-])cc(c23)C1=O [Example 121] | – | – | – | 0.397 (≈ 0.569 µM) | 0.032 (≈ 0.0459 µM)
19 | COc1ccc2cc3c4c(cccc4c2c1)C(=O)N([C@H](C)CNCCNC[C@@H](C)N1C(=O)c2cccc4cc([N+](=O)[O-])cc(c24)C1=O)C3=O [Example 122] | – | – | – | 0.211 (≈ 0.32 µM) | 0.023 (≈ 0.0349 µM)
20 | C[C@H](CNCCNC[C@@H](C)N1C(=O)c2cc([N+](=O)[O-])cc3c2c(cc2cccnc23)C1=O)N1C(=O)c2cccc3cc([N+](=O)[O-])cc(c23)C1=O [Example 123] | 0.013 (≈ 0.0192 µM) | – | 5770 (≈ 8540 µM) | – | –
21 | O=C1c2cccc3cc([N+](=O)[O-])cc(c23)C(=O)N1CCCCNCCCN1C(=O)c2cccc3c2c(cc2cccnc23)C1=O [Example 124] | 0.011 (≈ 0.0183 µM) | – | 290 (≈ 482 µM) | – | –
